Measurements: the supplement of paper PMC10307832

Tests used:
Test in all cases: relative viability (nuclei count vs DMSO), 5 days (fraction); higher = more cells survive
[1] = compound: COC1=CC(c2cc3ccccc3[nH]2)=N/C1=C\c1[nH]c(C)cc1C [Obatoclax] + COc1cccc2cc(-c3nc([C@H]4CC[C@H](C(=O)O)CC4)n4ncnc(N)c34)[nH]c12 [OSI-027] (partner 0.5 µM)
How it was run: (§1)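 Lung cancer cell lines, seeded in 1536-well plates, were treated the following day by pin tool with a single drug or with five library-drug doses (not always all listed) in √10 steps on top of a fixed anchor-drug dose. Cells were fixed and nuclei stained in one step after 5 days, and nuclei were counted. Relative viability is the nuclei count for treated wells divided by that for vehicle wells, reported as medians of duplicate plates.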

[2] = compound: CC1=CC(=NN1)NC2=CC(=NC(=N2)/C=C/C3=CC=CC=C3)N4CCN(CC4)C + O=C(c1cc(Cc2n[nH]c(=O)c3ccccc23)ccc1F)N1CCN(C(=O)C2CC2)CC1 [Olaparib] (partner 8 µM)
How it was run: as §1

[3] = compound: CC(C)C[C@H](NC(=O)[C@H](Cc1ccccc1)NC(=O)c1cnccn1)B(O)O [Bortezomib] + CCNC(=O)c1noc(-c2cc(C(C)C)c(O)cc2O)c1-c1ccc(CN2CCOCC2)cc1 [Luminespib] (partner 0.01 µM)
How it was run: as §1

[4] = compound: CC(C)C[C@H](NC(=O)[C@H](Cc1ccccc1)NC(=O)c1cnccn1)B(O)O [Bortezomib] + Cc1cc(Nc2cc(N3CCN(C)CC3)nc(Sc3ccc(NC(=O)C4CC4)cc3)n2)n[nH]1 [Tozasertib] (partner 0.1 µM)
How it was run: as §1

Cell Line | relative viability ([1]; first compound 0.01 µM) | relative viability ([1]; first compound 0.03162 µM) | relative viability ([1]; first compound 0.1 µM) | relative viability ([1]; first compound 0.3162 µM) | relative viability ([1]; first compound 1 µM) | relative viability ([2]; first compound 0.08 µM) | relative viability ([2]; first compound 0.253 µM) | relative viability ([2]; first compound 0.8 µM) | relative viability ([2]; first compound 2.53 µM) | relative viability ([2]; first compound 8 µM) | relative viability ([3]; first compound 0.0002 µM) | relative viability ([3]; first compound 0.000632 µM) | relative viability ([3]; first compound 0.002 µM) | relative viability ([3]; first compound 0.006325 µM) | relative viability ([3]; first compound 0.02 µM) | relative viability ([4]; first compound 0.0002 µM) | relative viability ([4]; first compound 0.000632 µM) | relative viability ([4]; first compound 0.002 µM) | relative viability ([4]; first compound 0.006325 µM) | relative viability ([4]; first compound 0.02 µM)
SW 1573 | 0.612 | 0.559 | 0.662 | 0.219 | 0.115 | 0.442 | 0.413 | 0.377 | 0.111 | 0.0633 | 0.162 | 0.222 | 0.214 | 0.0768 | 0.0532 | 0.168 | 0.172 | 0.165 | 0.0802 | 0.0573
SK-LU-1 | 0.366 | 0.315 | 0.273 | 0.205 | 0.166 | 0.405 | 0.515 | 0.423 | 0.273 | 0.125 | 0.218 | 0.205 | 0.201 | 0.155 | 0.118 | 0.284 | 0.362 | 0.282 | 0.102 | 0.1
NCI-H23 | 0.632 | 0.62 | 0.626 | 0.503 | 0.243 | 0.303 | 0.325 | 0.224 | 0.134 | 0.108 | 0.224 | 0.208 | 0.208 | 0.18 | 0.169 | 0.306 | 0.366 | 0.352 | 0.111 | 0.107
NCI-H1355 | 0.391 | 0.386 | 0.462 | 0.422 | 0.399 | 0.707 | 0.813 | 0.69 | 0.324 | 0.113 | 0.668 | 0.657 | 0.645 | 0.233 | 0.167 | 0.503 | 0.591 | 0.584 | 0.131 | 0.122
COR-L23 | 0.715 | 0.853 | 0.786 | 0.405 | 0.177 | 0.335 | 0.339 | 0.32 | 0.126 | 0.0705 | 0.639 | 0.669 | 0.61 | 0.0526 | 0.058 | 0.198 | 0.198 | 0.153 | 0.049 | 0.0491
NCI-H2023 | 0.42 | 0.381 | 0.488 | 0.226 | 0.102 | 0.464 | 0.586 | 0.384 | 0.0975 | 0.0526 | 0.638 | 0.694 | 0.789 | 0.118 | 0.0549 | 0.305 | 0.356 | 0.428 | 0.329 | 0.0545
A-427 | 0.513 | 0.462 | 0.49 | 0.418 | 0.399 | 0.815 | 0.774 | 0.913 | 0.468 | 0.158 | 0.889 | 0.926 | 0.589 | 0.33 | 0.125 | 0.212 | 0.263 | 0.193 | 0.105 | 0.102
UMC-11 | 0.465 | 0.504 | 0.48 | 0.379 | 0.285 | 0.361 | 0.39 | 0.395 | 0.0656 | 0.167 | 0.871 | 0.978 | 0.972 | 0.597 | 0.167 | 0.19 | 0.208 | 0.197 | 0.229 | 0.204
NCI-H596 | 0.837 | 0.602 | 0.65 | 0.504 | 0.425 | 0.729 | 0.607 | 0.601 | 0.412 | 0.24 | 0.942 | 0.73 | 0.609 | 0.244 | 0.2 | 0.82 | 0.949 | 0.753 | 0.188 | 0.155
LU99A | 0.291 | 0.282 | 0.267 | 0.312 | 0.298 | 0.275 | 0.244 | 0.266 | 0.182 | 0.103 | 0.227 | 0.178 | 0.231 | 0.24 | 0.184 | 0.279 | 0.29 | 0.247 | 0.252 | 0.17
NCI-H2009 | 0.582 | 0.608 | 0.535 | 0.229 | 0.247 | 0.657 | 0.746 | 0.691 | 0.811 | 0.324 | 0.954 | 0.988 | 1.06 | 0.803 | 0.0826 | 0.725 | 0.807 | 0.704 | 0.229 | 0.0821
